Results as given in US20090044291A1, “DROUGHT-RESISTANT PLANTS AND METHOD FOR PRODUCING THE PLANTS” (D-Helix, priority 2006, published 2009).

Target: T1, ABAR (Arabidopsis thaliana, UniProt Q9FNB0)
T1 construct: 6xHis; made in house; host or cells: transgenic yeast (Pichia methanolica), cell-free protein extracts
Experiment: Preliminary ABA binding experiment with transgenic yeast extracts expressing ABAR cDNA

T1 sequence (Q9FNB0 50-1381): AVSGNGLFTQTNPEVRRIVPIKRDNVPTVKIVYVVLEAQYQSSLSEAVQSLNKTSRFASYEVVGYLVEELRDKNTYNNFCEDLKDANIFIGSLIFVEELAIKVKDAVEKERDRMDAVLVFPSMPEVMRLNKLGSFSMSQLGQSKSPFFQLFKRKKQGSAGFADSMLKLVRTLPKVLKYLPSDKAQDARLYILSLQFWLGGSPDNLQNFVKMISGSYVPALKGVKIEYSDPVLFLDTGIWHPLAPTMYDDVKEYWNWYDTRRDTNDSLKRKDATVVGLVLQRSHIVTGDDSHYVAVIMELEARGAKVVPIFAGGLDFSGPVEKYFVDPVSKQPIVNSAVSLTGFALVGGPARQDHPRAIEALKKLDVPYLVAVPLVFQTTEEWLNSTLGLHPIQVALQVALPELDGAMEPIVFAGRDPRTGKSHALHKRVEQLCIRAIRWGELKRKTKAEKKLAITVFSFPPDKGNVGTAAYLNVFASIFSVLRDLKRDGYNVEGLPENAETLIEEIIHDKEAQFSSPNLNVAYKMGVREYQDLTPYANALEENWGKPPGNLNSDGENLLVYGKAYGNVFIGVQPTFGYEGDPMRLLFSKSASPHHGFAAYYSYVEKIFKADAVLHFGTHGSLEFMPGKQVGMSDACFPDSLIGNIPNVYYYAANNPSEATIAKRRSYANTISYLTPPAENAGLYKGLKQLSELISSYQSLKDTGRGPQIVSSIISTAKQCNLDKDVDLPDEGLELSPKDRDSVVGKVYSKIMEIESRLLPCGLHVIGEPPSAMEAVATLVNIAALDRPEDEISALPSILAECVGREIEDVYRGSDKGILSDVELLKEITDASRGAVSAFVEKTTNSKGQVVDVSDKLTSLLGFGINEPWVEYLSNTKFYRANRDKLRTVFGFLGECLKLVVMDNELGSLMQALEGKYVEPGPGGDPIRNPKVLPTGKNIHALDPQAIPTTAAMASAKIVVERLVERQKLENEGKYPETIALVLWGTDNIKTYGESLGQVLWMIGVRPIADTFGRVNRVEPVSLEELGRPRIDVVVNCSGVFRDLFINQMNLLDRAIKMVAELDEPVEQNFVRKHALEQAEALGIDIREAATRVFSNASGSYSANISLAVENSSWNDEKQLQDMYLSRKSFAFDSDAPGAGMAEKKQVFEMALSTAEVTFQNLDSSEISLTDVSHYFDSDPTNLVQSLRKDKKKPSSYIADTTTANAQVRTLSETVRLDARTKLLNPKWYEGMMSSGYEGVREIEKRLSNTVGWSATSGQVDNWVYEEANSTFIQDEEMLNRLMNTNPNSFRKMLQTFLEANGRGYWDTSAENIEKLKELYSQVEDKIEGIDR

## CC1=CC(=O)CC(C)(C)C1(O)/C=C/C(C)=C\C(=O)O (stereo not shown) [ABA, abscisic acid]
  Kd: 36 nM
